Data: ChEMBL document CHEMBL1177736, “Isopropylidene substitution increases activity and selectivity of biphenylmethylene 4-pyridine type CYP17 inhibitors” (J Med Chem, 2010)

What was measured:
[1] = molecular target: T1, Steroid 17-alpha-hydroxylase/17,20 lyase (Homo sapiens, UniProt P05093); assay: Inhibition of human CYP17 expressed in Escherichia coli coexpressing NADPH-P450 reductase
T1 sequence (P05093 whole entry): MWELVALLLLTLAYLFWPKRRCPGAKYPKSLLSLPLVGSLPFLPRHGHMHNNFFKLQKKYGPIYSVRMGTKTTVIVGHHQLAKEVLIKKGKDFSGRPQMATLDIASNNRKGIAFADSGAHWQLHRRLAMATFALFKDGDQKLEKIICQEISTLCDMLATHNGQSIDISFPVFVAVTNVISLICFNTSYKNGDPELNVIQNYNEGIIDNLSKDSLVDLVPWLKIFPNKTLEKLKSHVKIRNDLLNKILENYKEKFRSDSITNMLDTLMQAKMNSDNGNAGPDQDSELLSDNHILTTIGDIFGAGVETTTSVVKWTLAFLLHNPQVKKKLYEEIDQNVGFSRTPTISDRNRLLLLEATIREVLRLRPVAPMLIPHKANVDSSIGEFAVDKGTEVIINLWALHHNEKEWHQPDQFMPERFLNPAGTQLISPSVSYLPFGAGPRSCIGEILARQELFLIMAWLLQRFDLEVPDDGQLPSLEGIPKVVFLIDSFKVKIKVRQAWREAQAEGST

[2] = molecular target: T2, Cytochrome P450 11B1, mitochondrial (Homo sapiens, UniProt P15538); assay: Inhibition of human CYP11B1 expressed in hamster V79MZh cells; format: cell-based
T2 sequence (P15538 whole entry): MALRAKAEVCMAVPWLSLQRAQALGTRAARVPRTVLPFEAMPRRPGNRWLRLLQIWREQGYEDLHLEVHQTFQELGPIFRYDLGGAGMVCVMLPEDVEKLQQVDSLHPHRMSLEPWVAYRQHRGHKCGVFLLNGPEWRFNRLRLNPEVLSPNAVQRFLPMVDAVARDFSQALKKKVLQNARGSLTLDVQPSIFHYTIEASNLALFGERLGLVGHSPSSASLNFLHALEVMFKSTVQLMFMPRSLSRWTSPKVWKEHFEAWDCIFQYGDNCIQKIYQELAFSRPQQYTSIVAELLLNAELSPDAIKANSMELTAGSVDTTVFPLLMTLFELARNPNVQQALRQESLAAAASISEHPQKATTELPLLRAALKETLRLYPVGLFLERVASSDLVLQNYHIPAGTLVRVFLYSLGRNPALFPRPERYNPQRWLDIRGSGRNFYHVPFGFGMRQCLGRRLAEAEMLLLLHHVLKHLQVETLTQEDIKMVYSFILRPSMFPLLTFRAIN

[3] = molecular target: T3, Cytochrome P450 11B2, mitochondrial (Homo sapiens, UniProt P19099); assay: Inhibition of human CYP11B2 expressed in hamster V79MZh cells; format: cell-based
T3 sequence (P19099 whole entry): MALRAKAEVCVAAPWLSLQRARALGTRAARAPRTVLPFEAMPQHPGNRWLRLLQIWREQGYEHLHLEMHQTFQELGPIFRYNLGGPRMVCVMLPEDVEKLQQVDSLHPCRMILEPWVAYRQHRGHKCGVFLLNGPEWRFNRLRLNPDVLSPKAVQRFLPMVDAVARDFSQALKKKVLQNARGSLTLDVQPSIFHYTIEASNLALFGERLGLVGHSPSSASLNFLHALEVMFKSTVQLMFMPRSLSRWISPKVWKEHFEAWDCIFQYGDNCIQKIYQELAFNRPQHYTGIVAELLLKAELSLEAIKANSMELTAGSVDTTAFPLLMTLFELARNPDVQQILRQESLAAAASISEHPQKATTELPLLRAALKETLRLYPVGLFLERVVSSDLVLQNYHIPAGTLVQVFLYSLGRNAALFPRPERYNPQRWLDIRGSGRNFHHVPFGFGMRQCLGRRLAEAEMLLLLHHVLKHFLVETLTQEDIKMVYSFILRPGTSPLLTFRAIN

[4] = molecular target: T4, Aromatase (Homo sapiens, UniProt P11511); assay: Inhibition of CYP19 in human placental microsomes; set-up: species or system Placenta
T4 sequence (P11511 whole entry): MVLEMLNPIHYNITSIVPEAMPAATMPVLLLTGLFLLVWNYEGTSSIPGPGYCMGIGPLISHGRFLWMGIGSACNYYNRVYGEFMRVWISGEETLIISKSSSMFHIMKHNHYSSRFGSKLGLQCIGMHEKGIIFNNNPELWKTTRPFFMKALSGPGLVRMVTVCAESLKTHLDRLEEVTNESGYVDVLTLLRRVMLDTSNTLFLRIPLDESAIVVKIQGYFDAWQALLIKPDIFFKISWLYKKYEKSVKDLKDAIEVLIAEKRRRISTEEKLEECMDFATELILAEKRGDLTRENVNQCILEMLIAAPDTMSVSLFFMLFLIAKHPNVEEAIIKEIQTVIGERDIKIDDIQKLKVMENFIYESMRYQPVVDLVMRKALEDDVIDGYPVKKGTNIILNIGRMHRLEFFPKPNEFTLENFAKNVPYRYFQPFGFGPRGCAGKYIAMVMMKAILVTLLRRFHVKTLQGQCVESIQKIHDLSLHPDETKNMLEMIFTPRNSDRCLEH

[5] = molecular target: Cytochrome P450 3A4 (Homo sapiens, UniProt P08684); assay: Inhibition of CYP3A4 expressed in baculovirus infected insect microsomes; set-up: species or system Microsome
Sequence of Cytochrome P450 3A4 (P08684 whole entry): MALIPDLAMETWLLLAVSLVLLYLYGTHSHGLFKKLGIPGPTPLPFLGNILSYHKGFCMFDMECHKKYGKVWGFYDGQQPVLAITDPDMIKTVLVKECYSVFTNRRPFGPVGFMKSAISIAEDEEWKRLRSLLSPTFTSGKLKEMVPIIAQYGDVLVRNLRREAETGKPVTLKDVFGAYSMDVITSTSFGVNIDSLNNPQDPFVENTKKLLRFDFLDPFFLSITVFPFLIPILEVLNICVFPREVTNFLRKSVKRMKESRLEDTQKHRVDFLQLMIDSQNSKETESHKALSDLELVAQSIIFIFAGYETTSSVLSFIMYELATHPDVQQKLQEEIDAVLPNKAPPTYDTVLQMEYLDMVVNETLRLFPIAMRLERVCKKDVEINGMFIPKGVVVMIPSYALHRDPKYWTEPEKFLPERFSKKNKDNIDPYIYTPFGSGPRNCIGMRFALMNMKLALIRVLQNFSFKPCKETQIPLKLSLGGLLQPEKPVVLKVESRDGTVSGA

Compound `CC(C)=C(c1ccncc1)c1ccc(-c2ccc(NC(=O)OC(C)(C)C)c(NC(=O)OC(C)(C)C)c2)cc1` has an IC50 [1] of over 10000 nM.

`Nc1ccc(-c2ccc(Cc3ccncc3)cc2)cc1N` gave an IC50 [1] of 337 nM, an IC50 [2] of 502 nM and an IC50 [3] of 368 nM. For the same compound, the IC50 [4] was 24600 nM.

In the case of `CCC(c1ccncc1)c1ccc(-c2cccc(O)c2)cc1` (stereo unspecified), the IC50 [1] is reported as 189 nM.

`CC(C)=C(c1ccncc1)c1ccc(-c2cccc(NC(=O)OC(C)(C)C)c2)cc1` gave an IC50 [1] of 1460 nM.

In the case of `C[C@]12CC[C@H](O)CC1=CC[C@@H]1[C@@H]2CC[C@]2(C)C(c3cccnc3)=CC[C@@H]12` [ABIRATERONE], the IC50 [2] is reported as 1610 nM, the IC50 [3] is reported as 1750 nM and the IC50 [4] is reported as over 50000 nM.

Compound `CC(C)=C(c1ccncc1)c1ccc(-c2ccc(NC(=O)OC(C)(C)C)c(F)c2)cc1` has an IC50 [1] of 852 nM.

Compound `CC(C)=C(c1ccncc1)c1ccc(-c2ccc(O)c(F)c2)cc1` has an IC50 [1] of 75 nM, an IC50 [2] of 2000 nM and an IC50 [3] of 1870 nM. For the same compound, the IC50 [4] was 5750 nM and the IC50 [5] was 17600 nM.

In the case of `Nc1cccc(-c2ccc(Cc3ccncc3)cc2)c1`, the IC50 [1] is reported as 226 nM, the IC50 [2] is reported as 287 nM and the IC50 [3] is reported as 921 nM. For the same compound, the IC50 [4] was 2830 nM.

For `CC(C)=C(c1ccncc1)c1ccc(-c2ccc(N)c(N)c2)cc1`, the IC50 [1] was 75 nM, the IC50 [2] was 7180 nM and the IC50 [3] was 1130 nM. It also gave an IC50 [4] of 49500 nM and an IC50 [5] of 1770 nM.

Work on `CC(C)=C(c1ccncc1)c1ccc(-c2ccc(O)c(O)c2)cc1` yielded an IC50 [1] of 37 nM, an IC50 [2] of 37500 nM and an IC50 [3] of 974 nM. It also gave an IC50 [4] of 9500 nM and an IC50 [5] of 464 nM.

`CCC(c1ccncc1)c1ccc(-c2ccc(O)c(F)c2)cc1` (stereo unspecified) was tested, and the IC50 [1] was 343 nM.

`CC(C)=C(c1ccncc1)c1ccc(-c2ccc(NC(=O)OC(C)(C)C)cc2)cc1` was tested, and the IC50 [1] was 493 nM.

In the case of `CC(C)=C(c1ccncc1)c1ccc(-c2cccc(O)c2)cc1`, the IC50 [1] is reported as 56 nM, the IC50 [2] is reported as 3100 nM and the IC50 [3] is reported as 3450 nM. The IC50 [4] was 12000 nM and the IC50 [5] was 730 nM.

Compound `Oc1ccc(-c2ccc(Cc3ccncc3)cc2)cc1F` has an IC50 [1] of 186 nM, an IC50 [2] of 351 nM and an IC50 [3] of 110 nM. The IC50 [4] was 1670 nM and the IC50 [5] was 896 nM.

`CC(C)=C(c1ccncc1)c1ccc(-c2ccc3cc(O)ccc3c2)cc1` showed an IC50 [1] of 62 nM, an IC50 [2] of 5060 nM and an IC50 [3] of 49500 nM. For the same compound, the IC50 [4] was 48700 nM.

Work on `CC(C)=C(c1ccncc1)c1ccc(-c2cccc(N)c2)cc1` yielded an IC50 [1] of 38 nM, an IC50 [2] of 7300 nM and an IC50 [3] of 3830 nM. It also gave an IC50 [4] of 5060 nM and an IC50 [5] of 1330 nM.

Compound `Oc1ccc(-c2ccc(Cc3ccncc3)cc2)cc1O` has an IC50 [1] of 52 nM, an IC50 [2] of 1400 nM and an IC50 [3] of 948 nM. The IC50 [4] was 2440 nM and the IC50 [5] was 7580 nM.

With `Oc1cccc(-c2ccc(Cc3ccncc3)cc2)c1` the IC50 [2] was 342 nM, the IC50 [3] was 261 nM and the IC50 [4] was 663 nM. It also gave an IC50 [5] of 538 nM.

Compound `CC(C)C(c1ccncc1)c1ccc(-c2cccc(O)c2)cc1` (stereo unspecified) has an IC50 [1] of 783 nM.
